Tests used:
[1] = molecular target: T1, rat α1β2γ2 GABAA Receptor (Rattus norvegicus, UniProt P18508+P62813+P63138, INS375LLRMFSFK); assay: Xenopus oocyte two-electrode voltage-clamp electrophysiology; format: cell-based; settings: for Oocyte electrophysiology, ratio of currents in presence/absence of compound, 0.1 μM: 0.1 μM compound co-applied with 2 μM GABA; for Oocyte electrophysiology, ratio of currents in presence/absence of compound, 0.1 μM / Oocyte electrophysiology, ratio of currents in presence/absence of compound, 1 μM / Oocyte electrophysiology, ratio of currents in presence/absence of compound, 10 μM: −70 mV; for Oocyte electrophysiology, ratio of currents in presence/absence of compound, 1 μM: 1 μM compound co-applied with 2 μM GABA; for Oocyte electrophysiology, ratio of currents in presence/absence of compound, 10 μM: 10 μM compound co-applied with 2 μM GABA; for Gating (10 μM), ratio of compound only current/2 μM GABA current: direct current gated by 10 μM compound in the absence of GABA
T1 construct: from linearized pBluescript vectors containing receptor coding regions; expressed in transfected cells; host or cells: Xenopus laevis oocytes injected with in vitro transcribed capped mRNA
T1 sequence (P62813 28-455, stated change not applied): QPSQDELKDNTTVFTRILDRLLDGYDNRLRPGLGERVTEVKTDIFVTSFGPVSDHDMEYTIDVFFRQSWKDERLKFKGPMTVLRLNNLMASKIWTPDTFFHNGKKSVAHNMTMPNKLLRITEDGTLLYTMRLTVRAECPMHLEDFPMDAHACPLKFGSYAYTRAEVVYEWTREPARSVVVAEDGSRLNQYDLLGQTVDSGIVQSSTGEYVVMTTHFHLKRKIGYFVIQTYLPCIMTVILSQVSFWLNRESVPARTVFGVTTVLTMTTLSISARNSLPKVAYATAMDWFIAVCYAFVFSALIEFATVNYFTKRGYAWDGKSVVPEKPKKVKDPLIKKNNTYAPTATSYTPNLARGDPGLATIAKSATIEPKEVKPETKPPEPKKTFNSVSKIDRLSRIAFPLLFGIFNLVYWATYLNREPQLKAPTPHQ
T1 sequence (P63138 26-474, stated change not applied): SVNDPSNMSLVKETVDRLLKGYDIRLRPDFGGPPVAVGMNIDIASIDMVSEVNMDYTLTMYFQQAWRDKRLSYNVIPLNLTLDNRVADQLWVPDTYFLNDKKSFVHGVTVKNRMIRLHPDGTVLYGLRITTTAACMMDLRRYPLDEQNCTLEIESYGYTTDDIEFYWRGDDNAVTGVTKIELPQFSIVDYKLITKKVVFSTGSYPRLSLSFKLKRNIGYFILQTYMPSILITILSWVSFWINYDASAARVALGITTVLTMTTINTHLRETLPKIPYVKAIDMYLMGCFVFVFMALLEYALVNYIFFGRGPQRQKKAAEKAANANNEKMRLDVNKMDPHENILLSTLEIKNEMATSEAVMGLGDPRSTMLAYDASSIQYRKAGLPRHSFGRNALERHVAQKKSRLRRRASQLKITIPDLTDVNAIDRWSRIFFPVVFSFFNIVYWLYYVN
T1 sequence (P18508 with tags, fused parts or gaps INS375LLRMFSFK): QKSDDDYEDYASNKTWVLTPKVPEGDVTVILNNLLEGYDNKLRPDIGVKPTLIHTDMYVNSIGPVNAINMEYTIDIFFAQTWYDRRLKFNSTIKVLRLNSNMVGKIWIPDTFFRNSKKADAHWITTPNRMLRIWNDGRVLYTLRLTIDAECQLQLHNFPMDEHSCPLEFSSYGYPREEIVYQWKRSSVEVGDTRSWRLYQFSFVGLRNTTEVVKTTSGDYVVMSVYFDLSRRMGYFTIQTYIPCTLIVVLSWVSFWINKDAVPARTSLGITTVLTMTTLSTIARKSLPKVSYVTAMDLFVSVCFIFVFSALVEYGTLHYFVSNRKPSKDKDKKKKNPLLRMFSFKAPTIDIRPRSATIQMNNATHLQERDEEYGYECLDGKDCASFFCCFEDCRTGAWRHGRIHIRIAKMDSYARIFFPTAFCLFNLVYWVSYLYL
Procedure: Stage V-VI oocytes were harvested from sexually mature female Xenopus laevis (Xenopus One, Northland, Mich.) under 0.1% tricaine (3-aminobenzoic acid ethyl ester) anesthesia. Oocytes were defolliculated by shaking for 20 min at 37° C. in collagenase (2 mg/ml) dissolved in calcium-free solution containing (in mM): 96 NaCl, 2 KCl, 1 MgCl2, and 5 HEPES at pH 7.4. Capped mRNA, encoding rat GABAA receptor α1, β2 and γ2L subunits was transcribed in vitro using the mMESSAGE mMachine Kit (Ambion, Austin, Tex.) from linearized pBluescript vectors containing receptor coding regions. Subunit transcripts were injected in equal parts (20-40 ng total RNA) 8-24 hours following defolliculation. Oocytes were incubated up to 5 days at 18° C. in ND96 medium containing (in mM): 96 NaCl, 1 KCl, 1 MgCl2, 2 CaCl2 and 5 HEPES at pH 7.4, supplemented with pyruvate (5 mM), penicillin (100 U/ml), streptomycin (100 μg/ml) and gentamycin (50 μg/ml). The cDNAs for the rat GABAA-receptor subunits were originally provided by A. Tobin, University of California, Los Angels (α1), P. Malherbe, Hoffman-La Roche, Switzerland (β2), C. Fraser, National Institute on Alcohol Abuse and Alcoholism (γ2L).
Two-electrode voltage-clamp experiments were performed with a Warner OC725 amplifier 2-5 days following RNA injection. The extracellular recording solution was ND96 medium with no supplements. Intracellular recording pipettes were filled with 3 M KCl and had open tip resistances of ˜1 MΩ. Drugs were applied from a common tip via a gravity-driven multibarrel drug-delivery system. Steroids were simultaneously co-applied with GABA. Cells were clamped at −70 mV for all experiments, and peak current during 20 s drug applications was measured. Data acquisition and analysis were performed with pCLAMP software (Axon Instruments, California). Statistical differences were determined using a two-tailed Student's t-test.
The GABA concentration used for the control response was 2 μM. Each compound was evaluated on at least four different oocytes at the concentrations indicated, and the results reported are the ratio of the currents measured in the presence/absence of added compound. (G) represents direct current gated by 10 μM compound in the absence of GABA, and this current is reported as the ratio of compound only current/2 μM GABA current. Error limits are calculated as standard error of the means.

Xenopus laevis tadpoles = assay: Tadpole loss of righting (LRR) and swimming (LSR) reflexes; format: in vivo; settings: 3 h equilibration at room temperature; for EC50: Xenopus laevis, 3 h, read-out: LSR EC50 (loss of swimming response)
Procedure: Tadpole LRR was measured as described previously. (See, Wittmer, L. L., et al., Enantioselectivity of steroid-induced γ-aminobutyric acidA receptor modulation and anesthesia, Mol. Phar., 1996, 50:1581-1586). Briefly, groups of 10 early prelimb-bud stage Xenopus laevis tadpoles (Nasco, Fort Atkinson, Wis.) were placed in 100 mL of oxygenated Ringer's stock solution containing various concentrations of compound. Compounds were added from a 10 mM DMSO stock (final concentration of DMSO in test solutions ≦0.1%). After equilibrating at room temperature for 3 h, tadpoles were evaluated using the LRR and LSR behavioral endpoints. LRR was defined as failure of the tadpole to right itself within 5 sec after being flipped by a smooth glass rod. LSR was defined as failure of the tadpole to swim when touched by a smooth glass rod. In general, the tadpoles regained their righting and swimming reflexes when placed in fresh oxygenated Ringer's solution. Control beakers containing up to 0.6% DMSO produced no LRR or LSR in tadpoles.
Tadpole LRR and LSR concentration-response curves were fit using Sigma Plot version 3.0 to the Hill equation f=Rmax/{1+([conc]/EC50)^n}
where Rmax is the maximum effect, [conc] is the steroid concentration, EC50 is the half-maximal effective concentration, and n is the Hill coefficient.

[2] = molecular target: GABAA receptor ([35S]-TBPS binding site, rat brain cortical membranes); assay: Displacement of [35S]-TBPS binding, rat brain cortical membranes; settings: 5 μM GABA, 2 nM [35S]-TBPS; ± standard error of the means
Procedure: Rat brain cortical membranes were prepared with minor modifications of the method previously reported. (Hawkinson, J. E., et al., Correlation of Neuroactive Steroid Modulation of [^35S]t-Butylbicyclophosophorothionate and [^3H]Flunitrazepam Binding and γ-Aminobutyric AcidA Receptor Function, Mol. Pharmacol., 1994, 46, 977-985). Briefly, frozen rat cerebral cortices (Pel-freez, Rogers, Ak.) were thawed and homogenized in 10 volumes of ice-cold 0.32 M sucrose using a glass/Teflon pestle. The homogenate was centrifuged at 1500×g for 10 min at 4° C. The resultant supernatant was centrifuged at 10,000×g for 30 min at 4° C. The pellet (P2) from this centrifugation was resuspended in 200 mM NaCl, 50 mM potassium phosphate buffer, pH 7.4, and centrifuged at 10,000×g for 20 min at 4° C. This washing procedure was done a total of three times, and then pellets were resuspended in buffer (˜4 mL/brain) using a glass/Teflon pestle. The membrane suspension was aliquoted, frozen in liquid nitrogen, and stored at −80° C. prior to use.
[^35S]-TBPS Binding assays were done according to the procedure described previously (Hawkinson, J. E., et al., Correlation of Neuroactive Steroid Modulation of [^35S]t-Butylbicyclophosophorothionate and [^3H]Flunitrazepam Binding and γ-Aminobutyric AcidA Receptor Function, Mol. Pharmacol., 1994, 46, 977-985) with modifications. Briefly, aliquots of membrane solution (0.5 mg/mL final protein concentration in assay) were incubated with 5 μM GABA, 2 nM [^35S]-TBPS (45-120 Ci/mmol), and 5 μL aliquots of steroid in DMSO solution (final assay concentrations ranged from 1 nM to 10 μM), and brought to a final volume of 1 mL with 200 mM NaCl, 50 mM potassium phosphate buffer, pH 7.4. […] Assay tubes were incubated for 2 hr at room temperature. A Brandel (Gaithersburg, Md.) cell harvester was used for filtration of the assay tubes through Whatman/GF/C glass filter paper. Filter paper was rinsed with 4 mL of ice-cold buffer three times. Radioactivity bound to the filters was read by liquid scintillation counter and data was fit using Sigma Plot version 3.0 to the Hill equation i. f=Rmax/{1+([conc]/IC50)^n}
Where Rmax is the maximal effect, [conc] is steroid concentration, IC50 is the half-maximal inhibitor concentration and n is the Hill coefficient. Each data point was determined in triplicate and 2-3 full concentration-response curves were generated for each steroid.

Row | SMILES | melting point [°C] | Oocyte electrophysiology, ratio of currents in presence/absence of compound, 0.1 μM [1] | Oocyte electrophysiology, ratio of currents in presence/absence of compound, 1 μM [1] | Oocyte electrophysiology, ratio of currents in presence/absence of compound, 10 μM [1] | Gating (10 μM), ratio of compound only current/2 μM GABA current [1] | LRR ED50 (loss of righting response) (Xenopus laevis tadpoles) | EC50 (Xenopus laevis tadpoles) [nM] | IC50 [2] [nM] | LSR EC50 (loss of swimming response) (Xenopus laevis tadpoles) | Reversibility of steroid effect on GABA current (FIG. 1A) ([1]; 500 nM compound, 2 μM GABA, GABA recovery panel)
1 | CC12CCC(O)CC1CCC1C2CCC23C=C(Br)C(=O)C2CCC13 (stereo not drawn) [Compound 95, (3α,5α)-21-bromo-3-hydroxy-18,21-cyclopregn-18(21)-en-20-one] | 220 to 222.5 | 1.25 ± 0.08 | 1.99 ± 0.20 | 8.75 ± 1.92 | 0.02 ± 0.02 | 290 ± 40 nM | 550 ± 90 | 94 ± 17 |  | 
2 | C=C1CC[C@]23CCC4C(CC[C@H]5C[C@H](O)CC[C@]45C)C2CC[C@@H]3C1 (stereo partly drawn) [Compound 53, (3α,5α)-22-Methylene-13,24-cyclo-18,21-dinorcholan-3-ol] | 187 to 188 |  |  | 1.05 ± 0.04 |  |  |  | 107000 ± 29600 |  | 
3 | CC12CCC(O)CC1CCC1C2CCC23C=CC(=O)C2CCC13 (stereo not drawn) [Compound 94, (3α,5α)-3-Hydroxy-18,21-cyclopregn-18(21)-en-20-one] | 139 to 141 | 0.96 ± 0.02 | 1.41 ± 0.09 | 2.78 ± 0.13 | −0.04 ± 0.02 | 3370 ± 160 nM | 9520 | 745 ± 75 |  | 
4 | CC12CCC(O)CC1CCC1C2CCC23CCCC(O)C2CCC13 [Compound 68, (3α,5α,20R)-13,24-cyclo-18,21-dinorcholane-3,20-diol] | 269 to 271 | 0.74 ± 0.05 | 0.74 ± 0.05 | 0.79 ± 0.04 | 0.01 ± 0.02 | >10000 nM |  | 1540 | None @ 10 | 
5 | C[C@]12CC[C@@H](O)C[C@@H]1CCC1C3CC[C@@H]4[C@H]5O[C@H]5CC[C@]34CCC12 (stereo partly drawn) [Compound 71, (3α,5α,20R,22S)-20,22-Epoxy-13,24-cyclo-18,21-dinorcholan-3-ol] | 206 to 208 | 0.90 ± 0.05 | 1.05 ± 0.09 | 1.94 ± 0.23 | 0.00 ± 0.00 | None @ 10 |  | 596 ± 71 | None @ 10 | 
6 | CC12CCC(O)CC1CCC1C2CCC23CC4OC4C(=O)C2CCC13 [Compound 19a, (3α,5α,22S,23S)-22,23-Epoxy-3-hydroxy-13,24-cyclo-18,21-dinorcholan-20-one] | 238 to 240 | 1.47 ± 0.17 | 1.92 ± 0.23 | 8.90 ± 2.10 | 0.23 ± 0.24 | 1750 ± 460 nM | 10000 | 370 ± 42 |  | 
7 | CC(=O)[C@H]1CC[C@H]2[C@@H]3CC[C@@H]4C[C@H](O)CC[C@]4(C)[C@H]3CC[C@]12C [Compound 1b, (3α,5β)-3-Hydroxypregnan-20-one, reference compound] |  |  |  |  |  | 63 ± 3 nM | 300 |  |  | 
8 | CC(=O)[C@H]1CC[C@H]2[C@@H]3CC[C@H]4C[C@H](O)CC[C@]4(C)[C@H]3CC[C@]12C [Compound 1a, (3α,5α)-3-Hydroxypregnan-20-one, reference compound] |  |  |  |  |  | 420 ± 40 nM | 5500 ± 480 |  |  | readily reversible

Reference: patent publication US7781421B2, “Neuroactive 13, 24-cyclo-18, 21-dinorcholanes and structurally related pentacyclic steriods” (Washington University, priority 2003, dated 2010)
